Data taken from publication PMC6359800, “2-Ethoxystypandrone, a novel small-molecule STAT3 signaling inhibitor from Polygonum cuspidatum, inhibits cell growth and induces apoptosis of HCC cells and HCC Cancer stem cells” (BMC Complementary and Alternative Medicine, 2019).
Where two headings read alike, the source gives them in different places. Blank lines part the entries; values can stand above or below the compound they belong to.

What was measured:
[1] = test system: IL-6/STAT3 signaling pathway; parameters: method as in PMID 22855270; details: previously reported value; read-out: IC50 against STAT3 signaling; cited from earlier work
HepG3B cells = assay: MTT cell viability assay, HepG3B; type: cell-based; details: Homo sapiens, 72 h, read-out: IC50, cell growth/viability
Procedure: (§1) Human hepatocellular carcinoma Hep3B and HepG2 were obtained from the American Type Culture Collection. Human hepatocellular carcinoma Huh-7, Li-7 and SK-HEP-1 cells were kindly provided by Stem Cell Bank, Chinese Academy of Sciences. HepG2/STAT3 cells were cultured in α-MEM (Life Technologies, USA) with 10% FCS (Life Technologies, USA) and the rest cell lines were cultured in DMEM (Life Technologies) with 10% FCS (Life Technologies, USA).
(§2) The cell growth inhibitory activities on human hepatocellular carcinoma cells were examined by the MTT (3-(4,5-dimethylthiazol–2-yl)-2,5-diphenyl tetrazolium bromide). About 3.5 × 10^4 cells per well were seeded into 96-well plates for 24 h. HepG2/STAT3 cells were then treated with vehicle control (DMSO) or 2-ethoxystypandrone (1) at indicated concentrations (0.016, 0.08, 0.4, 2, 10, 50, 100 μM) for 6.5 h. HCC Huh-7, Li-7, SK-HEP-1, HepG3B, and HepG2 cells were treated with 2-ethoxystypandrone (1) at indicated concentrations for 72 h. The assay was carried out by adding a MTT solution (20 μL, 5 mg/mL; Sigma Chemical Co.) to each well and incubating for 3 h at 37 °C to form MTT-formazan crystals by metabolically viable cells. The supernatant was aspirated, and the MTT-formazan crystals were dissolved in DMSO (150 μL). The absorbance was measured by a microplate reader (BioTek Instruments, USA) at a wavelength of 492/620 nm.

Huh-7 cells [2] = assay: Annexin V/PI flow cytometry apoptosis, Huh-7; type: cell-based, human; details: Huh-7, 8 μM, 24 h
Procedure: Huh-7 cells were grown to 70–80% confluence and then treated with various concentrations (0, 2, 4, and 8 μM) of 2-ethoxystypandrone (1) for 24 h. The cells were harvested and […]. The cells were then treated with FITC Annexin V apoptosis detection kit I (BD Biosciences Pharmingen) according to the manufacturer’s protocol and the samples were immediately then analyzed by flow cytometry (BD Canto II, USA). The percentage of cells undergoing apoptosis was calculated with CELLQuest 3.0 software. The dots in the lower left quadrant, upper left quadrant, upper right quadrant, and lower right quadrant represent the viable cells, the damages cells, the cells in late apoptosis and the cells in early apoptosis, respectively.

Huh-7 cells [3] = assay: MTT cell viability assay, Huh-7; type: cell-based; details: Homo sapiens, Huh-7, 72 h, read-out: IC50, cell growth/viability
Procedure: as §1, §2

HepG2 cells = assay: MTT cell viability assay, HepG2; type: cell-based; details: Homo sapiens, HepG2, 72 h, read-out: IC50, cell growth/viability
Procedure: as §1, §2

[4] = test system: STAT3 tyrosine phosphorylation (Tyrosine 705) in HepG2/STAT3 cells; assay: Western blot, IL-6-induced STAT3 tyrosine phosphorylation; type: cell-based, human; details: 2 h pretreatment 2-100 μM, IL-6 15 min
Procedure: Expression of STAT3 and p-STAT3 proteins was analyzed by Western Blot analysis described in previous report. HepG2/STAT3 cells or HepG2 cells were grown to 70–80% confluency and then pre-treated with 2-ethoxystypandrone (1) at different concentrations (0, 2, 10, 50,100 μM) for 2 h. The cells were stimulated with IL-6 for 15 min (the phosphorylation of STAT3 appeared in the 15 min) and then lysed in Laemmli sample buffer and boiled for 5 min. Proteins were then separated by 8% SDS-PAGE and transferred to nitrocellulose membranes. Membranes were blocked in TBS containing 5% nonfat milk 0.1% and Tween 20 (TBST) for 1 h at room temperature and then incubated for 2 h in TBST containing primary antibodies and 5% bovine serum albumin. After being washed with TBST, membranes were then incubated with horseradish peroxidase-conjugated goat anti-mouse IgG (H + L) secondary antibody (#GAM007, MultiSciences) for 1 h, and finally immune complexes were detected by enhanced chemiluminescence. Primary antibodies used in Western blot were mouse anti-STAT3 (#9139,CST), mouse anti-pY-STAT3 (Tyrosine 705, #9138, CST), and mouse anti-α-tubulin (#sc5286, Santa Cruz).

[5] = test system: IL-6/STAT3 signaling pathway; assay: STAT3-dependent luciferase reporter assay; type: cell-based, human; details: for IC50: HepG2/STAT3 luciferase cells, compound 1 h then IL-6 10 ng/mL 5.5 h
Description: HepG2/STAT3 cells, a gift of Prof. Xinyuan Fu (National University of Singapore, Singapore), were the human hepatocellular carcinoma HepG2 cells stably transfected with a STAT3-responsive firefly luciferase reporter plasmid. Briefly, three tandem repeats of the oligonucleotide […], which contains the DNA binding sequence of STAT3, was artificially synthesized and introduced into the luciferase reporter vector pGL2-P plasmid (Promega). The pGL2-P/STAT3 construct was confirmed by sequencing. The luciferase reporter plasmid pGL2-P/STAT3 was used to transfect HepG2 cells using Lipofectamine 2000 (Invitrogen). The stably transfected HepG2 cell line with the pGL2-P/STAT3 plasmid was obtained by screening for G418-resistant cell clones.
The inhibitory activities on IL-6/STAT3 signaling were determined by STAT3-dependent luciferase reporter assay described in our previously report. HepG2/STAT3 cells were HepG2 cells stably transfected with a STAT3-responsive firefly luciferase reporter plasmid. The expression level of luciferase reached its peak value after 5–6 h stimulation by interleukin (IL)-6. HepG2/STAT3 cells (2 × 10^4 per well) were seeded into 96-well cell culture microplates (Corning) and allowed to grow for 48 h and then treated with compounds 1–8 (0, 0.00001, 0.0001, 0.001, 0.01, 0.1, 1, 4, 20 μM) for 1 h followed by stimulation with 10 ng/mL interleukin (IL)-6 (BD Biosciences) for 5.5 h (cells were treated with compounds 1–8 for 6.5h). Luciferase activities were measured with the Promega luciferase kit (# E4550) according to the manufacturer’s instruction. All luciferase assay experiments were carried out at least thrice in triplicate to minimize the difference caused by cell number. The JAK2/STAT3 inhibitor pyridone 6 (Merck Chemical) was used as a positive control.

Li-7 cells = assay: MTT cell viability assay, Li-7; type: cell-based; details: Homo sapiens, Li-7, 72 h, read-out: IC50, cell growth/viability
Procedure: as §1, §2

HCC CSCs [6] = assay: Annexin V flow cytometry apoptosis, HCC CSCs; type: cell-based, human
Procedure: (§3) HCC cancer stem cells were isolated from HCC Huh-7 cell line by serum-free cancer stem cell culture selection. The Huh-7 cells were collected and washed to remove serum, then suspended and plated in cancer stem cell conditioned culture medium (CSC medium) supplemented with 100 IU/ML pennicillin and 100 μg/ml streptomycin. CSC medium used for sustaining cancer stemness was serum-free DMEM/F12 containing 10 ng/ml basic fibroblast growth factor (bFGF), 20 ng/ml epidermal growth factor (EGF), 4 μg/ml heparin, 100 μg/ml apotransferrin, 25 μg/ml insulin, 9.6 μg/ml putrescin, 20 nM progesterone, 30 nM sodium selenite anhydrous, and 4 mg/ml bovine serum albumin. […]
For analysis the apoptosis of HCC CSCs, the suspended tumorspheres were harvested and dissociated mechanically into single cells with 0.005% trypsin-EDTA for 2 min and the dissociated cells were re-seeded with CSC medium and treated with indicated concentrations (0, 5, 8, and 10 μM) of 2-ethoxystypandrone (1) for 24 h. The cells were harvested and then treated with FITC Annexin V apoptosis detection kit I (BD Biosciences Pharmingen, USA) according to the manufacturer’s protocol respectively and the samples were immediately then analyzed by flow cytometry (BD Canto II, USA). […]

[7] = test system: human HCC cell lines (Huh-7, Li-7, SK-HEP-1, HepG3B, and HepG2); assay: MTT cell viability assay, panel of human HCC cell lines; type: cell-based; details: five HCC cell lines, 72 h, read-out: IC50 range over tested HCC cells
Procedure: as §1, §2

[8] = test system: HCC CSCs isolated from HCC Huh-7 cells; assay: Tumorsphere formation assay; type: cell-based, human; details: 72 h
Procedure: as §3
To propagate the tumorspheres in vitro, spheres were collected by gentle centrifugation, dissociated with 0.005% trypsin-EDTA for 2 min, then added CSC medium and mechanically dissociated with a pipette to single cells. […] The dissociated single sphere-forming cells were diluted to a density of 1000 cells/ml, Then, the 1ml/well diluted cell suspension was plated to ultra-low attachment 12 wells plate and treated with indicated concentrations (0, 0.5, 1, 2, 3, 5, 8 and 10 μM) of compound 2-ethoxystypandrone for 72 h, the tumorspheres were photographed under an inverted microscope (Leica DMi8, Germany) and the tumorspheres larger than 50 μm in diameter were counted using ImageJ 1.45.

SK-HEP-1 cells = assay: MTT cell viability assay, SK-HEP-1; type: cell-based; details: Homo sapiens, SK-HEP1, SK-HEP-1, 72 h, read-out: IC50, cell growth/viability
Procedure: as §1, §2

HCC CSCs [9] = assay: PI flow cytometry cell cycle distribution, HCC CSCs; type: cell-based, human; details: 10 μM, 24 h
Procedure: HCC cancer stem cells were isolated from HCC Huh-7 cell line by serum-free cancer stem cell culture selection. The Huh-7 cells were collected and washed to remove serum, then suspended and plated in cancer stem cell conditioned culture medium (CSC medium) supplemented with 100 IU/ML pennicillin and 100 μg/ml streptomycin. CSC medium used for sustaining cancer stemness was serum-free DMEM/F12 containing 10 ng/ml basic fibroblast growth factor (bFGF), 20 ng/ml epidermal growth factor (EGF), 4 μg/ml heparin, 100 μg/ml apotransferrin, 25 μg/ml insulin, 9.6 μg/ml putrescin, 20 nM progesterone, 30 nM sodium selenite anhydrous, and 4 mg/ml bovine serum albumin. The Huh-7 cells were subsequently cultured in ultra-low attachment 6-well plates at a density of 5000 cells/well, half volume of the flesh medium was exchanged every second day. After 10–14 days of culture, the most Huh-7 cells died and the cells grew up as nonadherent, three-dimensional sphere clusters.
For analysis the apoptosis of HCC CSCs, the suspended tumorspheres were harvested and dissociated mechanically into single cells with 0.005% trypsin-EDTA for 2 min and the dissociated cells were re-seeded with CSC medium and treated with indicated concentrations (0, 5, 8, and 10 μM) of 2-ethoxystypandrone (1) for 24 h. The cells were harvested and then treated with FITC Annexin V apoptosis detection kit I (BD Biosciences Pharmingen, USA) according to the manufacturer’s protocol respectively and the samples were immediately then analyzed by flow cytometry (BD Canto II, USA). […] After washing the cells with pre-cooled PBS twice, the cells were then treated with Propidium iodide (PI)/RNase Staining Buffer (BD Biosciences Pharmingen, USA) according to the manufacturer’s protocol respectively and the samples were immediately then analyzed by flow cytometry (BD Canto II,USA).

[10] = test system: HepG2/STAT3-luciferase cells; assay: MTT cell viability assay, HepG2/STAT3-luciferase cells 6.5 h; type: cell-based, human; details: 0.016-100 μM
Procedure: as §2

SMILES: COC1=CC(=O)c2c(cc(C)c(C(C)=O)c2O)C1=O [2-methoxystypandrone, 2-methoxy-6-acetyl-7-methyl-juglone]
IC50 [1]: 17.2 ± 0.21 µM

IC50 (Huh-7 cells [3]): 3.69 ± 0.51 µM
IC50 (HepG2 cells): 20.4 ± 2.9 µM
IC50 ([5]; Homo sapiens): 7.75 ± 0.18 µM
IC50 [7]: 3.69 to 20.4 µM
IC50 ([8]; Homo sapiens, Huh-7, HCC CSCs, spheres larger than 50 μm counted): 2.7 ± 0.28 µM
IC50 (SK-HEP-1 cells): 8.78 µM
SMILES: CCOC1=CC(=O)c2c(cc(C)c(C(C)=O)c2O)C1=O [compound 1, 2-ethoxy-6-acetyl-7-methyl-juglone]
IC50 (HepG3B cells): 16.7 ± 0.58 µM
total apoptosis (Huh-7 cells [2]): 88.6 ± 1.4%
IL-6-induced STAT3 tyrosine phosphorylation [4]: inhibit the IL-6-induced STAT3 tyrosine phosphorylation in a dose-dependent manner
increased potency against STAT3 signaling compared with 2-methoxystypandrone ([5]; ratio of IC50 values): 2 fold
IC50 (Li-7 cells): 5.58 ± 0.89 µM
percentage of apoptotic cells (HCC CSCs [6]; 10 μM, 24 h): 41.2 ± 4.3%
early apoptotic cells (HCC CSCs [6]; 24 h (text; 10 μM per Fig. 5a)): 38.2 ± 4.2%
self-renewal and tumorsphere formation vs control ([8]; 2 μM): significantly blocked self-renewal and the tumorsphere formation
cells in G0/G1 (HCC CSCs [9]): 37.53 ± 1.32%
cells in G2/M phase (HCC CSCs [9]): 18.5 ± 0.36%
cells in S phase (HCC CSCs [9]): 43.96 ± 1.07%
cell viability [10]: not completely dead

IC50 ([5]; Homo sapiens): > 100 µM
SMILES: O=C1COc2cc(O)cc(O)c21 [compound 3, 4,6-dihydroxybenzofuran-3-one]

IC50 ([5]; Homo sapiens): > 100 µM
SMILES: O=C(OC1C(Oc2cc(O)cc(C=Cc3ccc(O)cc3)c2)OC(CO)C(O)C1O)c1cc(O)c(O)c(O)c1 (stereo not drawn) [compound 5, polydatin-2′-O-gallate]

IC50 ([5]; Homo sapiens): > 100 µM
SMILES: OC[C@H]1O[C@@H](Oc2cc(O)cc(/C=C/c3ccc(O)cc3)c2)[C@H](O)[C@@H](O)[C@@H]1O [compound 6, polydatin]

IC50 ([5]; Homo sapiens): > 100 µM
SMILES: O=C(OC1Cc2c(O)cc(O)cc2OC1c1ccc(O)c(O)c1)c1cc(O)c(O)c(O)c1 (stereo not drawn) [compound 7, catechin-3-O-gallate]

SMILES: CC(C)(C)c1nc2c3cc[nH]c(=O)c3c3cc(F)ccc3c2[nH]1 [pyridone 6, reference compound]
IC50 [5]: 0.02 ± 0.001 µM
